Assays:
PIG-W = molecular target: T1, PIG-W (Homo sapiens, UniProt Q7Z7B1); assay: Growth of S. cerevisiae strain whose GWT1 is replaced by the human gene PIG-W; format: cell-based
T1 construct: expressed in transfected cells; host or cells: S. cerevisiae BY4741-derived gwt1 deletion shuttle strain carrying a pAG415GPD-based PIG-W plasmid
T1 sequence (Q7Z7B1 1-504): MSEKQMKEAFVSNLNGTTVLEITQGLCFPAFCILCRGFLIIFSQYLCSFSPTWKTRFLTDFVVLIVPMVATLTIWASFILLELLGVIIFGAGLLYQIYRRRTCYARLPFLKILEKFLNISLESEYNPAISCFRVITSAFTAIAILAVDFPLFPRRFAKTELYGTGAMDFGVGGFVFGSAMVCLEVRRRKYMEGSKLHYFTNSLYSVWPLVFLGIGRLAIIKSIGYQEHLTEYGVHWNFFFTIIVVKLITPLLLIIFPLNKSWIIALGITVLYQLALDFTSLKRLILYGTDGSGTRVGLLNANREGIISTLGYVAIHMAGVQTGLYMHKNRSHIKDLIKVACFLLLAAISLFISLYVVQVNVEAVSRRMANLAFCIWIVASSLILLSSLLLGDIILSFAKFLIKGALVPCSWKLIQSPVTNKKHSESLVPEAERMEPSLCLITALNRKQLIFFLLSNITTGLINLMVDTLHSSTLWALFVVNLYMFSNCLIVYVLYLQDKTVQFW
Procedure: Sensitivity to gepinacin was determined in 96-well, flat bottom microtiter plates using a modification of the NCCLS broth microdilution protocol CLS M27-A3 and RPMI as culture medium. Fungi were inoculated at ˜10^3 cells per ml and incubated for 48 hours at 37° C. after which plates were sealed, shaken and the optical density read at 600 nm (OD600) on a Tecan Safire 2 plate reader. All samples were run in duplicate or triplicate and assays were repeated at least once. Results are expressed as fraction of growth in the absence of compound and the mean and standard deviation are plotted. For the mold A. terreus, inoculum was 10^4 cells per ml and plates were incubated at 35° C. for 48 hours in the dark. Plates were then visually scored as specified by CLSI document M38-A2 to determine the MIC50 and MIC80.
Because GWT1 deletion is lethal in S. cerevisiae strain BY4741, a haploid shuttle strain was constructed in which the genomic copy of GWT1 was deleted and replaced by GWT1 on a plasmid that also encoded the URA3 gene and a G418-resistance gene. […]
An S. cerevesiae strain was generated in which the endogenous Gwt1 gene was deleted. […] Shown in FIGS. 22A-D show the effect of the indicated compounds on growth (assessed by OD600) and viability (assessed using Bactiter Glo) of the yeast strain with high copy or low copy plasmid containing S. cerevesiae Gwt1. […]

[1] = test system: mammalian cells (293T, mouse embryo fibroblasts); assay: Mammalian cell toxicity testing (Cell Titer-Glo); format: cell-based, human; conditions: 20 μM, 48 hours
Procedure: (B) Anti-fungal susceptibility testing for an evolutionarily diverse group of fungi treated with gepinacin. For A. terreus the MIC50 and MIC80 are plotted. (C) Anti-fungal susceptibility testing for wild type C. albicans and strains resistant to the three major classes of anti-fungals treated with gepinacin. (D) Mammalian cell toxicity testing for proliferating human cells in culture (293T) or quiescent cells (mouse embryo fibroblasts). Cells were treated with gepinacin (20 μM) for 48 hours after which relative viable cell number was measured by standard luciferase assay (Cell Titer-Glo®, Promega).

[2] = test system: fluconazole-resistant C. albicans strains CaCi2, 8 and 17; assay: Filamentation, liquid assay; format: cell-based; conditions: 5 μM
Procedure: For liquid assays, C. albicans strains were grown overnight in YPD with DMSO or 5 μM gepinacin. After dilution to an OD600 of 0.1 in Spider media, growth was continued for an additional 3 hours with agitation at 37° C. in the presence of compound before transfer to a 24 well plate for imaging (Shen, et al. (2008) Proc Natl Acad Sci USA 105, 20918-20923). Assays with S. cerevisiae strain Sigma 1278B on solid media were performed as previously described (Liu, et al. (1994) Science 266, 1723-1726) except gepinacin was added directly to partially cooled plate media and colonies were imaged after growth for 6 or 9 days at 30° C.
Because of its role in tissue invasion, a key determinant of fungal virulence is the ability to switch between yeast and filamentous forms (Shapiro, et al. (2011) Microbiol Mol Biol Rev 75, 213-267; Sudbery, (2011) Nat Rev Microbiol 9, 737-748; Noble, et al. (2010) Nat Genet 42, 590-598). A previous report has shown that mature GPI-anchors are required for this process (Richard, et al. (2002) Microbiology 148, 2125-2133). […] In the absence of gepinacin, all three drug-resistant clinical isolates underwent marked transformation to large macroscopic mats, readily visible to the eye. […]

## COc1ccc(NC(=O)COc2cccc(OCC(C)C)c2)cc1 [gepinacin]
PIG-W
  activity against PigW / in the PIG-W expressing strain: inactive
[1]
  cytotoxicity for mammalian cells: Lack of cytotoxicity
[2]
  filamentation in Spider medium: completely blocked
